Test results taken from ChEMBL document CHEMBL3414489, “3,4-Diaza-bicyclo[4.1.0]hept-4-en-2-one phenoxypropylamine analogs of irdabisant (CEP-26401) as potent histamine-3 receptor inverse agonists with robust wake-promoting activity” (Eur J Med Chem, 2015).
Values belong to the compound of their own block, whether it stands above or below them.

Tests used:
[1] = target: T1, Histamine H3 receptor (Homo sapiens, UniProt Q9Y5N1); assay: Binding affinity to human histamine H3 receptor
[2] = Plasma protein binding in rat; format: ADME, cell-free; conditions: read-out: PPB (converted)
[3] = tested on: Rattus norvegicus; assay: Wake promoting activity in rat EEG/EMG model assessed as AUC of cumulative wake at 30 mg/kg, ip up to 5.5 hrs relative to vehicle-treated control; format: functional, organism-based; parameters: dose 30 mg/kg, time < 5.5 hr
[4] = species on record: Rattus norvegicus; conditions: 10 mg/kg
[5] = Cmax in rat at 10 mg/kg, po; format: ADME, organism-based; parameters: dose 10 mg/kg, route oral; conditions: in vivo
[6] = Oral bioavailability in rat at 10 mg/kg; format: ADME, organism-based; conditions: in vivo
[7] = Aqueous solubility of the compound at pH 2; format: physicochemical
[8] = Permeability across human Caco2 cells; format: ADME, cell-based; conditions: Caco-2
[9] = tested on: Rattus norvegicus; assay: Wake promoting activity in rat EEG/EMG model assessed as cumulative wake time at 30 mg/kg, ip after 22 hrs relative to vehicle-treated control; format: functional; conditions: route intraperitoneal
[10] = Half life in rat liver microsomes; format: ADME
[11] = AUC (0 to t) in rat at 10 mg/kg, po; format: ADME, organism-based; parameters: dose 10 mg/kg, route oral; conditions: plasma
[12] = species on record: Rattus norvegicus; conditions: 30 mg/kg
[13] = tested on: Rattus norvegicus; assay: Wake promoting activity in rat EEG/EMG model assessed as AUC of cumulative wake at 3 mg/kg, ip up to 4 hrs relative to vehicle-treated control; format: functional, organism-based; parameters: dose 3 mg/kg, time < 4 hr
[14] = target: Sodium-dependent dopamine transporter (Homo sapiens, UniProt Q01959); assay: Inhibition of DAT (unknown origin)
Chain of Sodium-dependent dopamine transporter (Q01959 whole entry): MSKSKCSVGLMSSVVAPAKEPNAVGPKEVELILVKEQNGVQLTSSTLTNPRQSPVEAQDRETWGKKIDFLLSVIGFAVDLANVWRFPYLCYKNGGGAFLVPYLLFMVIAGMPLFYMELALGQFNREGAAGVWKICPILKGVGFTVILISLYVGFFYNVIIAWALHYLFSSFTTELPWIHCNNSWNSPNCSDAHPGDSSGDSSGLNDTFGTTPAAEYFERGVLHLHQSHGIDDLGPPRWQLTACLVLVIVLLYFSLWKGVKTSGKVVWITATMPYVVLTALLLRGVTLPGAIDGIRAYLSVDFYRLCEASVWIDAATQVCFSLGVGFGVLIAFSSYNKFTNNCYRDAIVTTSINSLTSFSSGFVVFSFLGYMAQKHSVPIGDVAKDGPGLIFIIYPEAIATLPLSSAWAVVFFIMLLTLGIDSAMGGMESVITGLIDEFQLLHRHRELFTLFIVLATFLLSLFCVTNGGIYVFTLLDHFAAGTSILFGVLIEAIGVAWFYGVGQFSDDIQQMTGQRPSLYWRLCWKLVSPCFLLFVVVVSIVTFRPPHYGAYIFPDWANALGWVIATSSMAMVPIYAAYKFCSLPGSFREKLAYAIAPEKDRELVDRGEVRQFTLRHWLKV

[15] = tested on: Rattus norvegicus; assay: Toxicity in po dosed rat; format: organism-based; conditions: in vivo
[16] = target: T2, Cytochrome P450 1A2 (Homo sapiens, UniProt P05177); assay: Inhibition of CYP1A2 (unknown origin); format: ADME
T2 sequence (P05177 whole entry): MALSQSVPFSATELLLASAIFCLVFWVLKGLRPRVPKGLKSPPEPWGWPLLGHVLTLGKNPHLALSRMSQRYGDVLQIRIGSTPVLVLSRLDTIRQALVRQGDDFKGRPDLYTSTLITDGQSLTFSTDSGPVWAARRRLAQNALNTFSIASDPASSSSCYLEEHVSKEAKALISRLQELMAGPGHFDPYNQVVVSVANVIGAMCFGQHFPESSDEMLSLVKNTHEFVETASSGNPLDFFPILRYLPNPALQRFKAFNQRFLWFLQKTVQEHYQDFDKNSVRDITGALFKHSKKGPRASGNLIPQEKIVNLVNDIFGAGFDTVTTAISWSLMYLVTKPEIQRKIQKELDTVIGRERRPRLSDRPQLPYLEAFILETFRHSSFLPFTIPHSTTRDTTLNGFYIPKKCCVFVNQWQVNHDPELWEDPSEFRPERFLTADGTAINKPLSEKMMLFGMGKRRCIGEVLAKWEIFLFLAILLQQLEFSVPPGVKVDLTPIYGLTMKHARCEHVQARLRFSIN

[17] = Half life in rat at 1 mg/kg, iv; format: ADME, organism-based; parameters: dose 1 mg/kg, route intravenous; conditions: in vivo
[18] = Half life in monkey liver microsomes; format: ADME, Macaca mulatta; conditions: rhesus monkey
[19] = tested on: Rattus norvegicus; assay: Wake promoting activity in rat EEG/EMG model assessed as cumulative wake time at 3 mg/kg, ip after 22 hrs relative to vehicle-treated control; format: functional; conditions: route intraperitoneal
[20] = Half life in human liver microsomes; format: ADME
[21] = Half life in mouse liver microsomes; format: ADME
[22] = Plasma protein binding in dog; format: ADME, cell-free, Canis lupus familiaris; conditions: read-out: PPB (converted)
[23] = Ratio of drug level in brain to plasma in rat at 10 mg/kg, ip after 2 hrs; format: ADME, organism-based; parameters: dose 10 mg/kg, route intraperitoneal; conditions: read-out: BPR
[24] = Volume of distribution at steady state in rat at 1 mg/kg, iv; format: ADME, organism-based; parameters: dose 1 mg/kg, route intravenous; conditions: in vivo, read-out: Vdss
[25] = target: T1, Histamine H3 receptor; assay: Inverse agonist activity at human H3R expressed in CHO cells assessed as inhibition of RAMH-induced [35S]GTPgammaS binding relative to control; format: functional, cell-based
[26] = tested on: Rattus norvegicus; assay: Toxicity in rat at 3 to 30 mg/kg, ip; format: organism-based; parameters: dose 3-30 mg/kg, route intraperitoneal; conditions: in vivo
[27] = target: Histamine H2 receptor (Homo sapiens, UniProt P25021); assay: Inhibition of human H2R
Chain of Histamine H2 receptor (P25021 whole entry): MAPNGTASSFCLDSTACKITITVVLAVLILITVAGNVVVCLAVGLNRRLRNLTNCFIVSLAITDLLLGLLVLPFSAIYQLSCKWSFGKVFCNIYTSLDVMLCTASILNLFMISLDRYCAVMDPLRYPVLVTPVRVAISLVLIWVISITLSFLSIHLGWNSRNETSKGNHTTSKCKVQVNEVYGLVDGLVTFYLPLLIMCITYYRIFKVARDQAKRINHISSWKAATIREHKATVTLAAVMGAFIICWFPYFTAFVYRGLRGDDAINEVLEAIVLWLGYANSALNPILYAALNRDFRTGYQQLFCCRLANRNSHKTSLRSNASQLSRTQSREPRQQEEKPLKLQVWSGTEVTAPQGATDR

[28] = tested on: Rattus norvegicus; assay: Wake promoting activity in rat EEG/EMG model assessed as cumulative wake time at 10 mg/kg, ip after 22 hrs relative to vehicle-treated control; format: functional; conditions: route intraperitoneal
[29] = target: Histamine H3 receptor (Rattus norvegicus, UniProt Q9QYN8); assay: Binding affinity to rat histamine H3 receptor
Chain of Histamine H3 receptor (Rattus norvegicus, UniProt Q9QYN8) (Q9QYN8 whole entry): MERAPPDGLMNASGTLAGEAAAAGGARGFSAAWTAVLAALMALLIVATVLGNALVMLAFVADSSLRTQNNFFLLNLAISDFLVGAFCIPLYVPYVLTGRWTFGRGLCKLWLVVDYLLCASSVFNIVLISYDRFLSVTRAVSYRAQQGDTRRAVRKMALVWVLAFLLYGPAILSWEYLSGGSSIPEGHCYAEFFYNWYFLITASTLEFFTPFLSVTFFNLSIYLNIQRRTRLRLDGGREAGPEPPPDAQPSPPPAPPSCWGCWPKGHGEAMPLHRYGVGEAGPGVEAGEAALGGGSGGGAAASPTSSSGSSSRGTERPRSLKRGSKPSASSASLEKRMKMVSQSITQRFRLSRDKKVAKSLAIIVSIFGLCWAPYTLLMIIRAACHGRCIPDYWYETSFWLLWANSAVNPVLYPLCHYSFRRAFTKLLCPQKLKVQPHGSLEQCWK

[30] = target: Histamine H1 receptor (Homo sapiens, UniProt P35367); assay: Inhibition of human H1R
Chain of Histamine H1 receptor (P35367 whole entry): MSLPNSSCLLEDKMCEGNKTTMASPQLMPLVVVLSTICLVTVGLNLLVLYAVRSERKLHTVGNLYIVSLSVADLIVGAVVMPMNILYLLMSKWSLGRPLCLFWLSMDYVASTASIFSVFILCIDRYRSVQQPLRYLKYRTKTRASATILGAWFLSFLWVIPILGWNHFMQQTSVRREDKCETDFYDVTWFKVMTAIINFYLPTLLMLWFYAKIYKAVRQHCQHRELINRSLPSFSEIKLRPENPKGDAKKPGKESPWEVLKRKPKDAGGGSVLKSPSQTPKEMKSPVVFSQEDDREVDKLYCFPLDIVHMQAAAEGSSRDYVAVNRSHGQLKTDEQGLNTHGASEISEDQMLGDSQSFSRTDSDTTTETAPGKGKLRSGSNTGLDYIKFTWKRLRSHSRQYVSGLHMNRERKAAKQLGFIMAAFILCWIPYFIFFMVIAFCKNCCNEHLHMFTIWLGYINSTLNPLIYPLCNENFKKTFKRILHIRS

[31] = Plasma protein binding in human; format: ADME, cell-free; conditions: read-out: PPB (converted)
[32] = Clearance in rat at 1 mg/kg, iv; format: ADME, organism-based; parameters: dose 1 mg/kg, route intravenous; conditions: in vivo
[33] = species on record: Rattus norvegicus; assay: Inhibition of RAMH-induced dipsogenia in rat; format: functional
[34] = target: T3, Alpha-2C adrenergic receptor (Homo sapiens, UniProt P18825); assay: Inhibition of alpha-2C adrenergic receptor (unknown origin)
T3 sequence (P18825 whole entry): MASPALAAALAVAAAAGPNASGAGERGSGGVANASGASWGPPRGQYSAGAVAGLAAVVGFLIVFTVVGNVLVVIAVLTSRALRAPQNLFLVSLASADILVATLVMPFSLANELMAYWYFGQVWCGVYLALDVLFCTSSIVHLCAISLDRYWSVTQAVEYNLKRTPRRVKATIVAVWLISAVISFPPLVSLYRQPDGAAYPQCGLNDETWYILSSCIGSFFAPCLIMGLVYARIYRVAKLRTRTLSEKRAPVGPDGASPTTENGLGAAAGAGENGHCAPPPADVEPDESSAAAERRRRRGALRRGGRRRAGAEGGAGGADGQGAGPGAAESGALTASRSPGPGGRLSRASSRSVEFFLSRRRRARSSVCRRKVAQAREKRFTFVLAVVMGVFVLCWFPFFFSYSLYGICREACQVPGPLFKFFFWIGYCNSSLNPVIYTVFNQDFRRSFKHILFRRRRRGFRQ

[35] = Aqueous solubility of the compound at pH 7.4; format: physicochemical
[36] = target: Histamine H4 receptor (Homo sapiens, UniProt Q9H3N8); assay: Inhibition of human H4R

T1 sequence (Q9Y5N1 whole entry): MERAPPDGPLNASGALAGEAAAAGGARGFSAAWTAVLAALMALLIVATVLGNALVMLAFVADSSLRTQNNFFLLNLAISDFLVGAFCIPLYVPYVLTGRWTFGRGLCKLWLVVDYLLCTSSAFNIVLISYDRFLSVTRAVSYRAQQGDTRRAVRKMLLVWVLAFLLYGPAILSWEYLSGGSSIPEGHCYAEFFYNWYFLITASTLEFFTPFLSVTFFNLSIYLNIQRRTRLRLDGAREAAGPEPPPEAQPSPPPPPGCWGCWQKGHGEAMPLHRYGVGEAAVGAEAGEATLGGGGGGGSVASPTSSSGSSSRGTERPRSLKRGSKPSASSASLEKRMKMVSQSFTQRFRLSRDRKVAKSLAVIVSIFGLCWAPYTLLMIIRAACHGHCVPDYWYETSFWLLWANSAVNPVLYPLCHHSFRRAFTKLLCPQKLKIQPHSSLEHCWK

Ki [1]: 0.0045 µM | fraction unbound [2]: 0.46 | Cmax [5]: 738 ng/mL | bioavailability [6]: 46% | solubility [7]: > 4000 µg/mL | Papp [8]: 15.7 ×10⁻⁶ cm/s | half-life [10]: > 40 min | AUC(0-t) [11]: 4660 ng·h/mL | Ki [14]: 6.6 µM | IC50 [16]: > 30 µM | half-life [17]: 84 min | half-life [18]: > 40 min | half-life [20]: > 40 min | half-life [21]: > 40 min | fraction unbound [22]: 0.47 | Kp at 2 h [23]: 3.1 | Vd [24]: 2.5 L/kg | EC50 [25]: 0.0006 µM | Ki [27]: > 10 µM | Ki [29]: 0.014 µM | Ki [30]: > 10 µM | fraction unbound [31]: 0.39 | clearance [32]: 20 mL/min/kg | Ki [34]: 1.8 µM | solubility [35]: > 4000 µg/mL | Ki [36]: > 10 µM
Structure (SMILES): C[C@@H]1CCCN1CCCOc1ccc(C2=NNC(=O)[C@H]3C[C@@H]23)cc1
AUC [3]: 231 min | AUC [4]: 192 min | Time [9]: 130 min | AUC [12]: 221 min | AUC [13]: 134 min | Activity [15]: Non-toxic | Time [19]: 85 min | Activity [26]: Non-toxic | Time [28]: 106 min | Activity [33]: Dose-dependent effect | ED50 [33]: 0.21 mg/kg

Ki [1]: 0.049 µM | Ki [29]: 0.103 µM
Structure (SMILES): Cc1cc(OCCCN2CCC[C@@H]2C)ccc1C1=NNC(=O)C2CC12 (mixture of isomers)

Ki [1]: 0.007 µM | Ki [29]: 0.066 µM
Structure (SMILES): Cc1cc(OCCCN2CCC[C@H]2C)ccc1C1=NNC(=O)C2CC12 (mixture of isomers)

Ki [1]: 0.019 µM | Ki [29]: 0.054 µM
Structure (SMILES): O=C1NN=C(c2ccc(OCCCN3CCCCC3)cc2)C2CC12 (racemic)
